From patent publication US20080311266A1, “Salt Enhancement” (priority 2007, published 2008)

Experiments:
[1] = Cooling threshold (level at which cooling effect detected); type: in vivo
tasting panel = test: Tasting panel test of perceived saltiness in salt-reduced broth; type: in vivo; conditions: for Level at which saltiness increase perceived / Effect on the perceived saltiness: salt-reduced broth, tasting panel; for Effect on the perceived saltiness: in words; for Upper threshold value for salt enhancement: stated in description
Method: A variety of compounds (listed in the table above) was tested in a salt-reduced broth. The compounds concerned were simply added to samples of the broth in a variety of concentrations and stirred in. The samples were tested by their being submitted to a tasting panel, which recorded its perceptions as to which sample (and therefore at what level of compound) a perception of increased saltiness was observed. The results are recorded in the table in the specification above.

CC1CCC(C(C)C)C(C(=O)Nc2ccc(CC#N)cc2)C1 (stereo not shown) [Compound 1, N-(4-cyanomethylphenyl) p-menthanecarboxamide]
Threshold level at which cooling effect detected - estimated [1]: 0.08 ppm
Level at which saltiness increase perceived (tasting panel): 0.005 ppm
Effect on the perceived saltiness (tasting panel): considerably greater effect
Upper threshold value for salt enhancement (tasting panel): 0.005 ppm

CC(C)[C@@H]1CC[C@@H](C)C[C@H]1C(=O)NCCc1ccccn1 [Compound 2, (1R,2S,5R)-2-isopropyl-5-methyl-N-(2-(pyridin-2-yl)ethyl)cyclohexanecarboxamide]
Threshold level at which cooling effect detected - estimated [1]: 0.08 ppm
Level at which saltiness increase perceived (tasting panel): 0.005 ppm
Effect on the perceived saltiness (tasting panel): considerably greater effect
Upper threshold value for salt enhancement (tasting panel): 0.005 ppm

CC1CCC(C(C)C)C(O)C1 (stereo not shown) [Menthol, menthol]
Threshold level at which cooling effect detected - estimated [1]: 1.5 ppm
Level at which saltiness increase perceived (tasting panel): 0.05 ppm

CCNC(=O)C1CC(C)CCC1C(C)C (stereo not shown) [WS3]
Threshold level at which cooling effect detected - estimated [1]: 1 ppm
Level at which saltiness increase perceived (tasting panel): 0.05 ppm

CNC(=O)C(C)(C(C)C)C(C)C [WS23]
Threshold level at which cooling effect detected - estimated [1]: 1.5 ppm
Level at which saltiness increase perceived (tasting panel): 0.05 ppm

CC1CCC(C(C)C)C(OC(=O)C(C)O)C1 (stereo not shown) [menthyl lactate]
Threshold level at which cooling effect detected - estimated [1]: 0.8 ppm
Level at which saltiness increase perceived (tasting panel): 0.05 ppm
